Data from ChEMBL document CHEMBL4011611, “Plumbagin reduces osteopontin-induced invasion through inhibiting the Rho-associated kinase signaling pathway in A549 cells and suppresses osteopontin-induced lung metastasis in BalB/c mice” (Bioorg Med Chem Lett, 2017).
Activity calls are given as the source filed them. No cut-off for these calls is given here.

Tests used:
[1] = species: Homo sapiens; test: Inhibition of FAK/AKT/ROCK in human H1299 cells assessed as reduction in osteopontin-induced cell invasion at 1 to 2 uM preincubated for 30 mins followed by osteopontin addition measured after 24 hrs by Diff-quick staining based matrigel-mediated Boyden chamber assay
[2] = tested on: A549; test: Inhibition of FAK/AKT/ROCK in human A549 cells assessed as reduction in osteopontin-induced cell motility at 2 uM preincubated for 30 mins followed by osteopontin addition measured after 24 hrs by Diff-quick staining based matrigel-mediated Boyden chamber assay relative to control
[3] = tested on: A549; test: Anti-invasive activity in human A549 cells assessed as reduction in osteopontin-induced ROCK1 expression after 24 hrs by Western blot method; format: functional, cell-based
[4] = tested on: A549; test: Inhibition of FAK/AKT/ROCK in human A549 cells assessed as reduction in osteopontin-induced LIMK1/2 phosphorylation after 24 hrs by Western blot method; format: cell-based
[5] = tested on: A549; test: Inhibition of FAK/AKT/ROCK in human A549 cells assessed as reduction in osteopontin-induced cell invasion at 2 uM preincubated for 30 mins followed by osteopontin addition measured after 24 hrs by Diff-quick staining based matrigel-mediated Boyden chamber assay relative to control
[6] = species: Homo sapiens; test: Inhibition of FAK/AKT/ROCK in human H1299 cells assessed as reduction in osteopontin-induced cell motility at 1 to 2 uM preincubated for 30 mins followed by osteopontin addition measured after 24 hrs by Diff-quick staining based matrigel-mediated Boyden chamber assay
[7] = tested on: A549; test: Inhibition of FAK/AKT/ROCK in human A549 cells assessed as reduction in osteopontin-induced cell motility at 1 uM preincubated for 30 mins followed by osteopontin addition measured after 24 hrs by Diff-quick staining based matrigel-mediated Boyden chamber assay relative to control
[8] = tested on: A549; test: Inhibition of FAK/AKT/ROCK in human A549 cells assessed as reduction in osteopontin-induced cell invasion at 1 uM preincubated for 30 mins followed by osteopontin addition measured after 24 hrs by Diff-quick staining based matrigel-mediated Boyden chamber assay relative to control
[9] = biological target: RAC-alpha serine/threonine-protein kinase (Homo sapiens) (UniProt P31749); test: Inhibition of osteopontin-induced AKT phosphorylation in human A549 cells at 1 to 2 uM after 15 mins by Western blot method; format: cell-based
[10] = tested on: A549; test: Effect on total FAK expression levels in human A549 cells at 1 to 2 uM measured after 15 mins by Western blot method; format: ADME, cell-based; settings: a549, 0.25 h
[11] = tested on: A549; test: Inhibition of FAK/AKT/ROCK in human A549 cells assessed as reduction in osteopontin-induced lamellipodia formation at 2 uM after 24 hrs by rhodamine phalloidin/DAPI staining based confocal microscopic analysis; format: cell-based
[12] = tested on: A549; test: Effect on total LIMK2 expression level in human A549 cells at 1 to 2 uM after 24 hrs by Western blot method; format: ADME, cell-based; settings: a549, 24 h
[13] = tested on: A549; test: Anticancer activity against human A549 cells xenografted in BalB/c nude mouse assessed as reduction in osteopontin-induced lung metastasis at 5 mg/kg, ip administered once daily for 8 weeks by India ink staining based method; format: functional, organism-based
[14] = tested on: Mus musculus; test: Toxicity in BalB/c nude mouse assessed as change in body weight at 5 mg/kg, ip administered once daily for 8 weeks measured every week of compound dosing; format: organism-based; settings: in vivo, 1344 h
[15] = tested on: A549; test: Effect on total cofilin protein expression level in human A549 cells at 1 to 2 uM after 24 hrs by Western blot method; format: ADME, cell-based; settings: a549, 24 h
[16] = tested on: A549; test: Cytotoxicity against human A549 cells assessed as reduction in cell viability at 2 to 8 uM after 24 hrs by MTT assay; format: cell-based; settings: a549, 24 h
[17] = tested on: A549; test: Inhibition of FAK/AKT/ROCK in human A549 cells assessed as reduction in osteopontin-induced cofilin phosphorylation after 24 hrs by Western blot method; format: cell-based
[18] = biological target: Focal adhesion kinase 1 (Homo sapiens) (UniProt Q05397); test: Inhibition of osteopontin-induced FAK phosphorylation in human A549 cells at 1 to 2 uM after 15 mins by Western blot method; format: cell-based
[19] = Cytotoxicity against human A549 cells after 24 hrs by MTT assay; format: cell-based; settings: read-out: MNCC
[20] = tested on: A549; test: Effect on total AKT expression level in human A549 cells at 1 to 2 uM after 15 mins by Western blot method; format: ADME, cell-based; settings: a549, 0.25 h

RAC-alpha serine/threonine-protein kinase (Homo sapiens), sequence (P31749 whole entry): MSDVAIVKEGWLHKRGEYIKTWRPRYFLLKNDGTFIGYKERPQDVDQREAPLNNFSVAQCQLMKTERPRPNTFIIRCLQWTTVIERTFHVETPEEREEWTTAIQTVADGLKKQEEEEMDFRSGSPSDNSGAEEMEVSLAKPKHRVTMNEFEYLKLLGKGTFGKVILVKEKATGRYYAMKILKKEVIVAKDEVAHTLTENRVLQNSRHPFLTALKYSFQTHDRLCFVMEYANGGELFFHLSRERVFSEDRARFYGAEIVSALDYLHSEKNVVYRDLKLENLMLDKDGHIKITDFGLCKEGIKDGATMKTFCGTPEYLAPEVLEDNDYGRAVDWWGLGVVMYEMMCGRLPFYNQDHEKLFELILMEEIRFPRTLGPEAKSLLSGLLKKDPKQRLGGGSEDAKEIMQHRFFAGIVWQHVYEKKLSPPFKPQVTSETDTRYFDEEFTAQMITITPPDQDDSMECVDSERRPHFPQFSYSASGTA
Focal adhesion kinase 1 (Homo sapiens), sequence (Q05397 2-1052 limits assumed): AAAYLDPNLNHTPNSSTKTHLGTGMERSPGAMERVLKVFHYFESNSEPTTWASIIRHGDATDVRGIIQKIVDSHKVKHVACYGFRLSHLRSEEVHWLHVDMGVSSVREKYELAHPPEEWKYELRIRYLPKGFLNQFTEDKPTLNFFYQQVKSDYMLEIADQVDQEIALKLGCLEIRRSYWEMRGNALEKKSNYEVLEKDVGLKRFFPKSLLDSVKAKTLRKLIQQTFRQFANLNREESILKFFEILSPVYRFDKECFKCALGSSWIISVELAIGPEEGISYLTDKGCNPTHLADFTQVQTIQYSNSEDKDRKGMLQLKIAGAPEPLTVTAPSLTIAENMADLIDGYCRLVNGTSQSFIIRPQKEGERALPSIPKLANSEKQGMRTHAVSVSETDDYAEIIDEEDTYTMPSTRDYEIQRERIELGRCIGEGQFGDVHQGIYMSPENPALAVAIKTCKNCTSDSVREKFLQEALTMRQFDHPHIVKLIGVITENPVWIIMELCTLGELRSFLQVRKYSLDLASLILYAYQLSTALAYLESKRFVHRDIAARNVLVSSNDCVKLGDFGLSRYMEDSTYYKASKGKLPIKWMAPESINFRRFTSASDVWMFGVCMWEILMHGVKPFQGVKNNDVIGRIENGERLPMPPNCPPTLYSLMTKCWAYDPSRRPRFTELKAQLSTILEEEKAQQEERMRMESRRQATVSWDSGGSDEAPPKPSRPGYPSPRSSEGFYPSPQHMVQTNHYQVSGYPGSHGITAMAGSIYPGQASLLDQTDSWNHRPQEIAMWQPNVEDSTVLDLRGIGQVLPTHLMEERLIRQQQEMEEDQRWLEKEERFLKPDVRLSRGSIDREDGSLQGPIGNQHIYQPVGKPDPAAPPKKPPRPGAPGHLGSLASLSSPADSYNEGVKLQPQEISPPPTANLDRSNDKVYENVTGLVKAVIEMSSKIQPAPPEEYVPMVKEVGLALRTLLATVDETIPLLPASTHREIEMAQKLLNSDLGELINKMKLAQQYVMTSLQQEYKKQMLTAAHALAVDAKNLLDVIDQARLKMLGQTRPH

Compound: CC1=CC(=O)c2c(O)cccc2C1=O [PLUMBAGIN]
- inhibition [1]: Active
- inhibition [2]: 74%
- Activity [3]: Dose-dependent effect
- inhibition [4]: Dose-dependent effect
- inhibition [5]: 67%
- inhibition [6]: Active
- inhibition [7]: 52%
- inhibition [8]: 38%
- inhibition [9]: Active
- Activity [10]: Non-Toxic
- inhibition [11]: Active
- Activity [12]: Non-Toxic
- Activity [13]: Active
- Activity [14]: Non-Toxic
- Activity [15]: Non-Toxic
- Activity [16]: Dose-dependent effect
- inhibition [17]: Dose-dependent effect
- inhibition [18]: Active
- MNTC at 24 h [19]: ≤ 2000 nM
- Activity [20]: Non-Toxic
